Source: US20250074911A1, “MACROCYCLIC BTK INHIBITORS” (Crossfire Oncology Holding B.V., priority 2021, published 2025)
Where “and” joins values, the source holds several entries; their conditions need not be identical. Equal entries are not always repeated.

Columns and labels:
[1] = target: wt-BTK (Homo sapiens (Human), UniProt Q06187); assay: Binding kinetics measurements (Surface Plasmon Resonance) on wt-BTK; conditions: for target residence time on wild-type-BTK: result in words; for Tau (h) wt-BTK (Act): target residence time, SPR; for Kd: binding affinity by Surface Plasmon Resonance (SPR)
Method in brief: (§1)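 Protein was immobilized on a streptavidin surface at 4° C, then equilibrated in running buffer containing 1% DMSO at 30 μl/min for at least 30 min. Compounds were injected five times at increasing concentrations (3.16-316 nM) at 22° C. Induced-fit binders were fitted with a two-state reaction model.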

[2] = target: BTK C481S (Homo sapiens (Human), UniProt Q06187, C481S); assay: Binding kinetics measurements (Surface Plasmon Resonance) on BTK C481S; conditions: for target residence time on BTK C481 mutants: result in words; for Tau (h) BTK C418S (Act): target residence time for BTK C481S, SPR; for Kd: binding affinity by Surface Plasmon Resonance (SPR)
Procedure: (§2) Binding kinetics measurements on wt-BTK, BTK […], BTK […], BTK […] and BTK […] (Surface Plasmon Resonance) Streptavidin-coated chips (Cat. No. BR100531), disposables and maintenance kits for Biacore were purchased from Cytiva (Eindhoven, The Netherlands). […] Remaining streptavidin was blocked with biocytin. Immobilization was performed at 4° C. Subsequent assay steps were conducted at 22° C. After changing buffer to Biacore buffer with 1% (v/v) dimethylsulfoxide (DMSO), a pre-run was performed for a period of at least 30 min at a flow rate of 30 μl/min to obtain a stable surface. The kinetic constants of the compounds were determined with single cycle kinetics with five consecutive injections with an increasing compound concentration with ranges of 3.16-316 nM. […] To circumvent problems of mass transport limitation, a flow rate of 30 μl/min was used. A blank run with the same conditions was performed before the compound was injected. The SPR sensorgrams were analyzed with Biacore Evaluation Software by using a method of double referencing. First the reference channel was subtracted from the channel containing immobilized protein. Subsequently, the reference curve obtained with buffer injections was subtracted. […] Compounds that bound according to an induced fit model were fitted with a two-state reaction model. The kinetic constants (ka, […], KD) of duplicates were geometrically averaged. […] Target residence for an induced fit model was calculated as described (Tummino and Copeland, 2008).

[3] = target: BTK T316A (Homo sapiens (Human), UniProt Q06187, T316A); assay: Binding kinetics measurements (Surface Plasmon Resonance) on BTK T316A; conditions: for target residence time on BTK T316 mutants: result in words; for Tau (h) BTK T316A (Act): target residence time, SPR; for Kd: binding affinity by Surface Plasmon Resonance (SPR)
Procedure: as §2

[4] = target: BTK T474I (Homo sapiens (Human), UniProt Q06187, T474I); assay: Binding kinetics measurements (Surface Plasmon Resonance) on BTK T474I; conditions: for target residence time on BTK T474 mutants (T474I): result in words; for Tau (h) BTK T474I (Act): target residence time, SPR; for Kd: binding affinity by Surface Plasmon Resonance (SPR)
Method in brief: as §1

[5] = target: BTK T474S (Homo sapiens (Human), UniProt Q06187, T474S); assay: Binding kinetics measurements (Surface Plasmon Resonance) on BTK T474S; conditions: for residence time: SPR binding kinetics, BTK T474S, read-out: Tau (h) BTK T474S (Act), target residence time (converted); for target residence time on BTK T474 mutants (T474S): result in words; for Kd: binding affinity by Surface Plasmon Resonance (SPR)
Procedure: as §2

[6] = target: full-length wt-BTK enzyme (Homo sapiens (Human), UniProt Q06187); assay: Biochemical kinase assay wt-BTK (IMAP)
Method in brief: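 Compound and enzyme (final 1.2 nM) were pre-incubated for 1 h at RT, after which the reaction was started with 4 μM ATP plus 50 nM fluorescein-MBP substrate peptide. After 2 h in the dark, the IMAP progressive binding reagent stopped the reaction, and phosphorylation was read by fluorescence polarization.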

[7] = target: full-length BTK C481S enzyme (Homo sapiens (Human), UniProt Q06187, C481S); assay: Biochemical kinase assay BTK C481S (IMAP)
Method in brief: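 IC50 values come from IMAP fluorescence polarization after quenching with progressive binding solution. The reaction ran 2 h at room temperature in the dark with 1.2 nM full-length C481S enzyme, 7 μM ATP and 50 nM fluorescein-labelled MBP-derived peptide, following a 1 h dark pre-incubation of compound with enzyme.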

[8] = tested on: wt-REC-1 mantle cell lymphoma cells; assay: Cell proliferation assay wt-REC-1 (ATPlite, 72 hours); assay type: cell-based; conditions: 72 h; read-out: IC50 wt-REC-1
Method in brief: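 Luminescent viability read over 72 h, start-of-incubation signal recorded separately to separate growth from cell death. Percentage growth referenced to compound-free 0.3% DMSO wells; IC50 from 4-parameter logistic fit.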

[9] = tested on: REC-1 T474I cell lines; assay: Cell proliferation assay REC-1 BTK T474I knock-in cells (ATPlite, 72 hours); assay type: cell-based; conditions: Homo sapiens, Rec1; 72 hours; read-out: IC50 REC-1 T474I
Method in brief: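 REC-1 cells carrying CRISPR knock-in mutant BTK, single-cell cloned and sequence-confirmed, were exposed to compound for 72 h and read by ATPlite luminescence. Percentage growth was calculated against the signal at the start of incubation and against untreated 0.3% DMSO wells as maximum growth.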

[10] = tested on: wt-TMD8 diffuse large B-cell lymphoma cells; assay: Cell proliferation assay wt-TMD8 (ATPlite, 120 hours); assay type: cell-based; conditions: B-cell; wt-TMD8 cells, 120 hours, ATPlite; read-out: IC50 wt-TMD8
Method in brief: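 Readout is percentage growth from ATPlite 1Step luminescence after 5 days (120 h) compound treatment of wt-TMD8 lymphoma cells (1600/well, RPMI-1640 + 10% FBS). Time-zero signal separates growth inhibition from cell kill; 0.3% DMSO wells without compound define maximal growth.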

Sequence of wt-BTK (Q06187 whole entry): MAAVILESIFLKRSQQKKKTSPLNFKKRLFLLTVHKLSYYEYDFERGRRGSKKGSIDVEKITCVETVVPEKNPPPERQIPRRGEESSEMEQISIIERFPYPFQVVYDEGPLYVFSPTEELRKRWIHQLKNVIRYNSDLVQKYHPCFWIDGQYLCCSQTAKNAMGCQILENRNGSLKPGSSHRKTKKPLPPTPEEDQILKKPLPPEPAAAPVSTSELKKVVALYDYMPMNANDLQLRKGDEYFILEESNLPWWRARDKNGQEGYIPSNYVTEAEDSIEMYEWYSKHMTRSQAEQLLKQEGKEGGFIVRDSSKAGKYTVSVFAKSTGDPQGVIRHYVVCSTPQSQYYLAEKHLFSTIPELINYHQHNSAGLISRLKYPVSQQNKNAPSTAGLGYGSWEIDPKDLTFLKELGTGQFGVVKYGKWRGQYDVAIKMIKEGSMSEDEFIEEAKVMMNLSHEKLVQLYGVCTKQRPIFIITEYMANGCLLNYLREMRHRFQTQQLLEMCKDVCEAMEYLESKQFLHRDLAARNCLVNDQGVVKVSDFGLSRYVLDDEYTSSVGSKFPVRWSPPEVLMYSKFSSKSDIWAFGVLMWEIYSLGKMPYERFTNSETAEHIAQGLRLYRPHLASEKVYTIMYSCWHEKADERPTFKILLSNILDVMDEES
Sequence of full-length wt-BTK enzyme (Q06187 whole entry): as above
Sequence of BTK T474S (Q06187 whole entry T474S): as the sequence (Q06187 whole entry) above, with T474S counted along it
Sequence of BTK T474I (Q06187 whole entry T474I): as the sequence (Q06187 whole entry) above, with T474I counted along it
Sequence of BTK C481S (Q06187 whole entry C481S): as the sequence (Q06187 whole entry) above, with C481S counted along it
Sequence of full-length BTK C481S enzyme (Q06187 whole entry C481S): as the sequence (Q06187 whole entry) above, with C481S counted along it
Sequence of BTK T316A (Q06187 whole entry T316A): as the sequence (Q06187 whole entry) above, with T316A counted along it

Row | Compound | target residence time on wild-type-BTK [1] | Tau (h) wt-BTK (Act) [1] | target residence time on BTK C481 mutants [2] | Tau (h) BTK C418S (Act) [2] | target residence time on BTK T316 mutants [3] | Tau (h) BTK T316A (Act) [3] | target residence time on BTK T474 mutants (T474I) [4] | Tau (h) BTK T474I (Act) [4] | residence time [5] | target residence time on BTK T474 mutants (T474S) [5] | IC50 [6] | IC50 [7] | IC50 [8] | Kd [1] | Kd [2] | Kd [3] | Kd [4] | Kd [5] | IC50 [10] | IC50 [9]
1 | C[C@H]1CN(C2COC2)CCN1c1ccc(Nc2cc(-c3ccnc(N4CCn5c(cc6c5CC(C)(C)C6)C4=O)c3CO)cn(C)c2=O)nc1 [fenebrutinib, reference compound] | short target residence times | 0.29 h | short target residence times | 0.08 h | short target residence times | 0.03 h | short target residence times | 0.19 h | 0.93 h | short target residence times | – | – | – | – | – | – | – | – | – | –
2 | NC(=O)[C@H]1CCN(c2ncnc(N)c2F)C[C@@H]1N1CCC[C@@H](Nc2cc(Cl)cc(C(F)(F)F)c2)C1=O [vecabrutinib, reference compound] | short target residence times | 0.18 h | short target residence times | 0.12 h | short target residence times | 0.05 h | short target residence times | 0.01 h | 0.07 h | short target residence times | – | – | – | – | – | – | – | – | – | –
3 | Nc1ncc2c3c1c(-c1ccc(C(=O)Nc4cc(C(F)(F)F)ccn4)cc1)nn3[C@@H]1CCC[C@H](C1)C(=O)NCCCCCCC2 [Example 115] | – | 5.09 h | – | 6.25 h | – | 2.96 h | – | – | 3.89 h | – | < 5 nM | < 5 nM | 100 to 1000 nM | < 5 nM | < 5 nM | < 5 nM | 10 to 50 nM and < 5 nM | < 3 nM | – | 100 to 500 nM
4 | Nc1ncc2n3c(nc(-c4ccc(C(=O)Nc5cc(C(F)(F)F)ccn5)cc4)c13)[C@@H]1CCC[C@H](C1)NC(=O)CCC/C=C\C2 [Example 133b] | – | – | – | – | – | – | – | – | – | – | < 5 nM | < 5 nM | – | < 5 nM | < 5 nM | < 5 nM | < 2 nM | < 3 nM | – | –
5 | Nc1ncc2c3c1c(-c1ccc(C(=O)Nc4ccccn4)cc1)nn3[C@@H]1CCC[C@H](C1)NC(=O)CCCCC/C=C/2 [Example 24] | – | – | – | – | – | – | – | – | – | – | – | – | – | < 5 nM | < 5 nM | < 5 nM | < 2 nM | < 3 nM | – | –
6 | Nc1ncc2n3c(nc(-c4ccc(C(=O)Nc5cc(C(F)(F)F)ccn5)cc4)c13)[C@@H]1CCC[C@H](C1)NC(=O)CCC/C=C/2 [Example 132] | – | 2.75 h | – | 3.96 h | – | 1.58 h | – | – | 3.04 h | – | < 5 nM | < 5 nM | 100 to 1000 nM | < 5 nM | < 5 nM | < 5 nM | < 2 nM | < 3 nM | – | 500 to 10000 nM

More lines, main results first:

Row | target residence time on wild-type-BTK [1] | Tau (h) wt-BTK (Act) [1] | target residence time on BTK C481 mutants [2] | Tau (h) BTK C418S (Act) [2] | target residence time on BTK T316 mutants [3] | Tau (h) BTK T316A (Act) [3] | target residence time on BTK T474 mutants (T474I) [4] | Tau (h) BTK T474I (Act) [4] | residence time [5] | target residence time on BTK T474 mutants (T474S) [5] | IC50 [6] | IC50 [7] | IC50 [8] | Kd [1] | Kd [2] | Kd [3] | Kd [4] | Kd [5] | IC50 [10] | Compound | IC50 [9]
7 | – | 4.35 h | – | 5.98 h | – | 3.58 h | – | 1.14 h | 4.46 h | – | < 5 nM | < 5 nM | 100 to 1000 nM | < 5 nM | < 5 nM | < 5 nM | 10 to 50 nM and < 5 nM | < 3 nM | – | Nc1ncc2c3c1c(-c1ccc(C(=O)Nc4cc(C(F)(F)F)ccn4)cc1)nn3[C@@H]1CCC[C@H](C1)NC(=O)CCCC/C=C\C2 [Example 98b] | –
8 | – | – | – | – | – | – | – | – | 4.37 h | – | – | – | < 100 nM | < 5 nM | < 5 nM | < 5 nM | < 2 nM | < 3 nM | < 100 nM | C[C@@H]1CCn2nc(-c3ccc(C(=O)Nc4cc(C(F)(F)F)ccn4)cc3)c3c(N)ncc(c32)/C=C/CCCCC(=O)N1 [Example 54] | 100 to 500 nM
9 | – | 4.39 h | – | 7.08 h | – | 1.96 h | – | – | 3.12 h | – | – | – | < 100 nM | – | – | – | – | – | < 100 nM | Nc1ncc2n3c(nc(-c4ccc(C(=O)Nc5cc(C(F)(F)F)ccn5)cc4)c13)C1CCC[C@H](C1)NC(=O)CCC/C=C\C2 [Example 133b] | –
10 | – | 2.86 h | – | 3.83 h | – | 2.22 h | – | – | 1.64 h | – | < 5 nM | < 5 nM | < 100 nM | < 5 nM | < 5 nM | < 5 nM | < 2 nM | < 3 nM | < 100 nM | Nc1ncc2n3c(nc(-c4ccc(C(=O)Nc5cc(C(F)(F)F)ccn5)cc4)c13)[C@@H]1CCC[C@H](C1)NC(=O)CCCC/C=C/2 [Example 130] | –
11 | – | – | – | 4.68 h | – | 3.51 h | – | 1.31 h | 1.14 h | – | < 5 nM | < 5 nM | < 100 nM | – | < 5 nM | – | – | – | < 100 nM | C[C@@H]1CC(=O)N[C@@H]2CC[C@H](C2)n2nc(-c3ccc(C(=O)Nc4cc(C(F)(F)F)ccn4)cc3)c3c(N)ncc(c32)/C=C/CCN1 [Example 175] | 100 to 500 nM
12 | – | 3.13 h | – | – | – | 5.38 h | – | 1.94 h | 1.95 h | – | < 5 nM | < 5 nM | < 100 nM | – | – | – | – | – | < 100 nM | C[C@@H]1C[C@@H](C)n2nc(-c3ccc(C(=O)Nc4cc(C(F)(F)F)ccn4)cc3)c3c(N)ncc(c32)/C=C/COCCC(=O)N1 [Example 176] | < 100 nM
13 | – | 4.95 h | – | 7.19 h | – | 1.85 h | – | – | 2.48 h | – | < 5 nM | < 5 nM | < 100 nM | < 5 nM | < 5 nM | < 5 nM | < 2 nM | < 3 nM | < 100 nM | C[C@@H]1CCn2nc(-c3ccc(C(=O)Nc4cc(C(F)(F)F)ccn4)cc3)c3c(N)ncc(c32)/C=C/CSCC(=O)N1 [Example 61] | –
14 | – | 5.48 h | – | – | – | 6.42 h | – | 1.93 h | 4.3 h | – | < 5 nM | < 5 nM | < 100 nM | < 5 nM | – | < 5 nM | < 2 nM | < 3 nM | < 100 nM | Nc1ncc2c3c1c(-c1ccc(C(=O)Nc4cc(C(F)(F)F)ccn4)cc1)nn3[C@@H]1CCC[C@H](C1)NC(=O)CCCC[C@H](O)/C=C/2 [Example 11] | 100 to 500 nM
